Experiments:
[1] = Inhibition of beta-haematin complex formation after 60 mins by spectrophotometry relative to chloroquine; assay type: physicochemical
[2] = system: Plasmodium falciparum; test: Antiplasmodial activity against Plasmodium falciparum 3D7 infected in erythrocytes assessed as [3H]hypoxanthine incorporation after 24 hrs by microbeta scintillation counting analysis; assay type: functional, organism-based
[3] = system: Plasmodium falciparum; test: Antiplasmodial activity against Plasmodium falciparum K1 infected in erythrocytes assessed as [3H]hypoxanthine incorporation after 24 hrs by microbeta scintillation counting analysis; assay type: functional, organism-based
[4] = system: Plasmodium falciparum; test: Resistance index, ratio of IC50 for Plasmodium falciparum K1 to IC50 for Plasmodium falciparum 3D7; assay type: functional

| SMILES | IC50 [1] | IC50 [2] | IC50 [3] | Ratio IC50 [4] |
| --- | --- | --- | --- | --- |
| Cn1cc(O)c(=O)cc1CNCCCNc1ccnc2cc(Cl)ccc12 | 6.12 equiv | 120 nM | 360 nM | 2.2 |
| CN(CCCNc1ccnc2cc(Cl)ccc12)Cc1cc(=O)c(O)cn1C | 1.95 equiv | 40 nM | 270 nM | 1 |
| Cn1cc(O)c(=O)cc1CNCCCCNc1ccnc2cc(Cl)ccc12 |  | 670 nM | 720 nM | 0.1 |
| Cn1cc(O)c(=O)cc1CNCCCCCCNc1ccnc2cc(Cl)ccc12 | 0.7 equiv | 150 nM | 970 nM | 1.7 |
| O=c1cc(CNCCNc2ccnc3cc(Cl)ccc23)n(C2CC2)cc1O | 1.41 equiv | 300 nM | 460 nM | 1.6 |
| O=c1cc(CNCCCNc2ccnc3cc(Cl)ccc23)n(C2CC2)cc1O | 2.62 equiv | 160 nM | 850 nM | 3.6 |
| CN(CCCNc1ccnc2cc(Cl)ccc12)Cc1cc(=O)c(O)cn1C1CC1 | 5.24 equiv | 170 nM | 360 nM | 1.5 |
| O=c1cc(CNCCCCNc2ccnc3cc(Cl)ccc23)n(C2CC2)cc1O | 2.57 equiv | 4 nM | 30 nM | 2.1 |
| O=c1cc(CNCCCCCCNc2ccnc3cc(Cl)ccc23)n(C2CC2)cc1O | 1.39 equiv | 30 nM | 80 nM | 2.7 |
| Cn1cc(OCc2ccccc2)c(=O)cc1CNCCNc1ccnc2cc(Cl)ccc12 | 1.27 equiv | 540 nM | 2560 nM | 4.7 |
| Cn1cc(OCc2ccccc2)c(=O)cc1CNCCCNc1ccnc2cc(Cl)ccc12 | 1.3 equiv | 300 nM | 1750 nM | 3 |
| CN(CCCNc1ccnc2cc(Cl)ccc12)Cc1cc(=O)c(OCc2ccccc2)cn1C | 1.98 equiv | 390 nM | 2080 nM | 6.9 |
| Cn1cc(OCc2ccccc2)c(=O)cc1CNCCCCNc1ccnc2cc(Cl)ccc12 | 0.42 equiv | 240 nM | 270 nM | 2.2 |
| Cn1cc(OCc2ccccc2)c(=O)cc1CNCCCCCCNc1ccnc2cc(Cl)ccc12 | 0.51 equiv | 40 nM | 150 nM | 0.4 |
| O=c1cc(CNCCNc2ccnc3cc(Cl)ccc23)n(C2CC2)cc1OCc1ccccc1 | 0.56 equiv | 210 nM | 40 nM | 1 |
| O=c1cc(CNCCCNc2ccnc3cc(Cl)ccc23)n(C2CC2)cc1OCc1ccccc1 | 0.22 equiv | 190 nM | 1710 nM | 7.1 |
| CN(CCCNc1ccnc2cc(Cl)ccc12)Cc1cc(=O)c(OCc2ccccc2)cn1C1CC1 |  | 150 nM | 70 nM | 0.1 |
| O=c1cc(CNCCCCNc2ccnc3cc(Cl)ccc23)n(C2CC2)cc1OCc1ccccc1 | 0.82 equiv | 160 nM | 320 nM | 5.3 |
| O=c1cc(CNCCCCCCNc2ccnc3cc(Cl)ccc23)n(C2CC2)cc1OCc1ccccc1 | 0.071 equiv | 4 nM | 320 nM | 7.5 |
| Cn1cc(O)c(=O)cc1CNCCNc1ccnc2cc(Cl)ccc12 | 0.63 equiv | 580 nM | 1450 nM | 3 |
| C[C@@H]1CC[C@H]2[C@@H](C)C(=O)O[C@@H]3O[C@@]4(C)CC[C@@H]1[C@]32OO4 [ARTEMISININ] |  | 9 nM | 4 nM | 0.4 |
| CCN(CC)CCCC(C)Nc1ccnc2cc(Cl)ccc12 (configuration not stated) [CHLOROQUINE] | 1.9 equiv |  |  |  |
